Values after ≈ are worked out from the molar mass of the structure shown. Like-named read-outs stand apart in the source and are kept apart here.
Key:
A2780 S = assay: two cell line test procedure (sulforhodamine B cytotoxicity), A2780 S; type: cell-based; details: A2780 S cells, 48 hours exposure
Method: (§1) A2780 S and A2780 DDP cells [Biochemical and Molecular Properties of Cisplatin-resistant A2780 Cells Grown in Folinic Acid; Y. Lu, J. Hnan, and K. Scanlon, J. Biol. Chem., 263, 4891-4894, 1988.] are grown in RPMI 1640 medium containing 5% fetal calf serum, 50 µg/ml streptomycin, 50 units/ml penicillin, 50 µg/ml gentamycin, 0.03% L-glutamine, 1 nM estradiol, 1 nM testosterone, 5 µg/mlinsulin, 5 µg/ml transferrin, and 5 ng/ml selenous acid, at 37°C, in a humidified atmosphere, containing 5% CO2. Experiments are done in the same media.
(§2) Cells are plated at the concentration of 5 x 10^4/ml on Day 0 of the experiment. On Day one control cells are fixed with trichloroacetic acid and 5 ten fold dilutions of tested compounds are added, in duplicates, to the remaining cells. On Day 3 (48 hours exposure to drugs) all cells are fixed with trichloroacetic acid, stained with 0.4% sulforhodamine B, and absorbency is read at 520 nm. The IC50s (concentration causing 50% inhibition) are determined for each drug.

A2780 DDP = assay: two cell line test procedure (sulforhodamine B cytotoxicity), A2780 DDP; type: cell-based; details: A2780 DDP (cisplatin-resistant) cells, 48 hours exposure
Method: as §1, §2

COLON 26 = assay: Murine Colon 26 Advanced, Metastatic Tumor; type: in vivo, CD2F1 mice
Method: CD2F1 mice are injected i.p. with 5 x 10^5 tumor cells on Day 0 of the test. […] Positive drug response is indicated by a more than 25% increase in the mean life span (% ILS), relative to placebo treated controls. Drugs are considered to be toxic, when the mean life span of the drug treated animals is more than 15% shorter than placebo treated controls.

P388 [1] = assay: Murine P388 Leukemia; type: in vivo, CD2F1 mice
Method: CD2F1 mice are injected i.p. with 1 x 10^6 tumor cells on Day 0 of the test. Drugs are administered i.p. on Days 1, 5, and 9 after the tumor implantation. Positive drug response is indicated by a more than 25% increase in the mean life span (% ILS), relative to placebo treated controls. Drugs are considered to be toxic when the mean life span of the drug treated animals is more than 15% shorter than placebo treated controls.

LS174T = details: days 1,5,9
Method: Human tumor fragments are implanted s.c. in athymic nude mice. Tumors are allowed to grow until they attain a mass of 100-150 mgs. […] Drugs are administered i.p. at Days 1, 5, and 9. Each mouse tumor mass is determined every 7 days, until Day 28, using caliper measurements of tumor length and width. Mean tumor mass for each group of animals is then calculated and the relative tumor growth determined. The relative tumor growth is defined as a ratio of the tumor mass on a given day to a tumor mass on Day 0. Calculation of % T/C (the relative tumor growth of treated group divided by the relative tumor growth of placebo group, multiplied by 100) is made for each day of measurement. A positive drug response is indicated by a % T/C value below 60%, and a p value in the Student t-test of less than 0.05. More than 20% deaths in the group related to the drug administration indicates toxicity.

[2] = reported by Denny et al.; cited from earlier work
[3] = reported by Denny et al.; cited from earlier work; remark: listed apart in the source
P388 [4] = details: reported by Denny et al.; cited from earlier work
[5] = P388, 50 mg/kg i.p., days 1,5,9
[6] = P388, 100 mg/kg i.p., days 1,5,9
[7] = P388, 200 mg/kg i.p., days 1,5,9
[8] = COLON 26, 200 mg/kg i.p., days 5,9,13

Row | SMILES | IC50 (µg/ml) A2780 S (A2780 S) [µg/mL] | IC50 (µg/ml) A2780 DDP (A2780 DDP) [µg/mL] | also measured
1 | CN(C)CCNC(=O)c1cccn2c(=O)c3cc(-c4cccc(C(F)(F)F)c4)ccc3nc12 [Example 18] | 1.10 (≈ 2.42 µM) | 4.20 (≈ 9.24 µM) | 
2 | COc1cccc2c1C(=O)c1c(O)c3c(c(O)c1C2=O)C[C@@](O)(C(=O)CO)C[C@@H]3O[C@H]1C[C@H](N)[C@H](O)[C@H](C)O1 [Adriamycin, reference compound] |  |  | % ILS (COLON 26; COLON 26, 4 mg/kg i.p., days 5,9,14): +71%
3 | CN(C)CCNC(=O)c1cccn2c(=O)c3cc(-c4cccc(N)c4)ccc3nc12 [Example 13, 11H-Pyrido[2,1-b]quinazoline-6-carboxamide, 2-(3-aminophenyl)-N-[2-(dimethyl-amino)ethyl]-11-oxo] | 0.40 (≈ 0.996 µM) | 3.70 (≈ 9.22 µM) | % ILS (P388 [1]; [5]): +2%; % ILS (P388 [1]; [6]): +20%; % ILS (P388 [1]; [7]): +57%; % ILS (COLON 26; COLON 26, 100 mg/kg i.p., days 5,9,13): +18%; % ILS (COLON 26; [8]): +24%; % ILS (COLON 26; COLON 26, 250 mg/kg i.p., days 5,9,13): +35%; %T/C (LS174T; 250 mg/kg i.p.): 59 %T/C; %T/C (LS174T; 300 mg/kg i.p.): 44 %T/C
4 | Cl.Cl.Cl.Nc1ccccc1-c1ccc2nc3c(C(=O)NCCNCCO)cccn3c(=O)c2c1 [Example 30, 11H-Pyrido[2,1-b]quinazoline-6-carboxamide, 2-(2-aminophenyl)-N-[2-[(2-hydroxyethyl)amino]ethyl]-11-oxo-trihydrochloride] | 4.80 | 6.90 | 
5 | Cl.Cl.O=C(NCCNCCO)c1cccn2c(=O)c3cc(-c4ccccc4)ccc3nc12 [Example 26, 11H-pyrido[2,1-b]quinazoline-6-carboxamide, N-[2-[(2-hydroxyethyl)amino]-ethyl]-11-oxo-2-phenyl, dihydrochloride] | 0.80 | 3.50 | 
6 | CN(C)CCNC(=O)c1cccn2c(=O)c3cc(-c4cccc5ccccc45)ccc3nc12 [Example 17, 11H-pyrido[2,1-b)quinazoline-6-carboxamide, N-[2-(dimethylamino)ethyl]-2-(1-naphthalenyl)-11-oxo] | 4.60 (≈ 10.5 µM) | 4.70 (≈ 10.8 µM) | 
7 | CN(C)CCNC(=O)c1cccn2c(=O)c3cc(-c4cccc(N(C)C)c4)ccc3nc12 [Example 21, 11H-Pyrido[2,1-b]quinazoline-6-carboxamide, N-[2-(dimethylamino)ethyl]-2-[3-(dimethylamino)phenyl]-11-oxo] | 0.20 (≈ 0.466 µM) | 0.50 (≈ 1.16 µM) | 
8 | CN(C)CCNC(=O)c1cccn2c(=O)c3cc(-c4cc5ccccc5c5ccccc45)ccc3nc12 [Example 16] | 4.10 (≈ 8.43 µM) | 5.30 (≈ 10.9 µM) | 
9 | CC[C@]1(O)C[C@H]2CN(CCc3c([nH]c4ccccc34)[C@@](C(=O)OC)(c3cc4c(cc3OC)N(C=O)[C@H]3[C@@](O)(C(=O)OC)[C@H](OC(C)=O)[C@]5(CC)C=CCN6CC[C@]43[C@@H]65)C2)C1 [Vincristine, reference compound] |  |  | % ILS (P388 [1]; P388, 0.8 mg/kg i.p., days 1,5,9): +114%; %T/C (LS174T; 1.0 mg/kg i.p.): 52 %T/C
10 | COc1ccc(-c2ccc3nc4c(C(=O)NCCN(C)C)cccn4c(=O)c3c2)cc1 [Example 19, 11H-Pyrido[2,1-b]quinazoline-6-carboxamide, N-[2-(dimethylamino)ethyl]-2-(4-methoxyphenyl)-11-oxo] | 4.30 (≈ 10.3 µM) | 3.40 (≈ 8.16 µM) | % ILS (P388 [1]; [5]): -9%; % ILS (P388 [1]; [6]): +4%; % ILS (P388 [1]; [7]): +6%
11 | CN(C)CCNC(=O)c1cccn2c(=O)c3cc(-c4ccccc4-c4ccccc4)ccc3nc12 [Example 14, 11H-Pyrido[2,1-b]quinazoline-6-carboxamide, 2-[1,1'biphenyl]-2-yl-N-[2-(dimethylamino)ethyl]-11-oxo] | 4.40 (≈ 9.51 µM) | 4.80 (≈ 10.4 µM) | 
12 | CN(C)CCNC(=O)c1cccn2c(=O)c3cc(-c4cc(C(F)(F)F)cc(C(F)(F)F)c4)ccc3nc12 [Example 20, 11H-Pyrido[2,1-b]quinazoline-6-carboxamide, 2-[3,5-bis(trifluoromethyl)phenyl]-N-[2-(dimethylamino)ethyl]-11-oxo] | 3.80 (≈ 7.27 µM) | 3.00 (≈ 5.74 µM) | 
13 | CN(C)CCNC(=O)c1cccn2c(=O)c3cc(-c4cccc(-c5ccccc5)c4)ccc3nc12 [Example 15, 11H-Pyrido[2,1-b]quinazoline-6-carboxamide, 2-[1,1'-biphenyl]-3-yl-N-[2-(dimethylamino)ethyl]-11-oxo] | 0.60 (≈ 1.3 µM) | 0.80 (≈ 1.73 µM) | % ILS (P388 [1]; [5]): +8%; % ILS (P388 [1]; [6]): +2%; % ILS (P388 [1]; P388, 200 mg/kg i.p., days 1,5): -40%
14 | CN(C)CCNC(=O)c1cccn2c(=O)c3ccccc3nc12 [I, N-[2-(dimethylamino)ethyl]-11-oxo-11H-pyrido[2,1-b]quinalzoline-6-carboxamide] |  |  | in vitro activity [2]: some in vitro activity; mutagenic activity [3]: mutagenic activity; activity in a P388 mouse model (P388 [4]): inactive
15 | Cl.Cl.Cl.Nc1cccc(-c2ccc3nc4c(C(=O)NCCNCCO)cccn4c(=O)c3c2)c1 [Example 24, 11H-Pyrido [2,1-b]quinazoline-6-carboxamide, 2-(3-aminophenyl)-N-[2-[(2-hydroxyethyl)amino]ethyl]-11-oxo-trihydrochloride] | 0.60 | 2.10 | % ILS (P388 [1]; P388, 25 mg/kg i.p., days 1,5,9): +12%; % ILS (P388 [1]; [5]): +4%; % ILS (P388 [1]; [6]): +4%; % ILS (P388 [1]; [7]): 0%; % ILS (COLON 26; [8]): +24%; % ILS (COLON 26; COLON 26, 300 mg/kg i.p., days 5,9,13): -24%
16 | CN(C)CCNC(=O)c1cccn2c(=O)c3ccc(-c4cccc(N)c4)cc3nc12 [Example 35, 11H-Pyrido[2,1-b]quinazoline-6-carboxamide, 3-(3-aminophenyl)-N-[2-(dimethylamino)ethyl]-11-oxo] | 0.50 (≈ 1.25 µM) | 0.40 (≈ 0.996 µM) | 

— patent EP0944629B1, “BIARYL-PYRIDOQUINAZOLINONE DERIVATIVES AS ANTI-CANCER AGENTS” (American Cyanamid Company, priority 1996, dated 1998)
